Key:
[1] = test system: Tyrosine-protein kinase ABL1 (Homo sapiens), P00519 [F317I]; details: Compound concentration 1000.0 nM
[2] = test system: Tyrosine-protein kinase ABL1 (Homo sapiens), P00519 [Y253F]; details: Compound concentration 1000.0 nM
[3] = test system: ALK tyrosine kinase receptor (Homo sapiens), Q9UM73 [C1156Y]; details: Compound concentration 1000.0 nM
[4] = molecular target: Aurora kinase B (Homo sapiens) (UniProt Q96GD4); details: Compound concentration 1000.0 nM
[5] = molecular target: Tyrosine-protein kinase receptor UFO (Homo sapiens) (UniProt P30530); details: Compound concentration 1000.0 nM
[6] = molecular target: Calcium/calmodulin-dependent protein kinase type 1 (Homo sapiens) (UniProt Q14012); details: Compound concentration 1000.0 nM
[7] = molecular target: Serine/threonine-protein kinase 17B (Homo sapiens) (UniProt O94768); details: Compound concentration 1000.0 nM
[8] = test system: Epidermal growth factor receptor (Homo sapiens), P00533 [T790M]; details: Compound concentration 1000.0 nM
[9] = molecular target: Tyrosine-protein kinase HCK (Homo sapiens) (UniProt P08631); details: Compound concentration 1000.0 nM
[10] = molecular target: Myosin light chain kinase (Homo sapiens) (UniProt Q32MK0); details: Compound concentration 1000.0 nM
[11] = molecular target: Serine/threonine-protein kinase MRCK beta (Homo sapiens) (UniProt Q9Y5S2); details: Compound concentration 1000.0 nM
[12] = molecular target: Serine/threonine-protein kinase 3 (Homo sapiens) (UniProt Q13188); details: Compound concentration 1000.0 nM
[13] = molecular target: Serine/threonine-protein kinase Nek10 (Homo sapiens) (UniProt Q6ZWH5); details: Compound concentration 1000.0 nM
Serine/threonine-protein kinase Nek10 (Homo sapiens), sequence (Q6ZWH5 whole entry): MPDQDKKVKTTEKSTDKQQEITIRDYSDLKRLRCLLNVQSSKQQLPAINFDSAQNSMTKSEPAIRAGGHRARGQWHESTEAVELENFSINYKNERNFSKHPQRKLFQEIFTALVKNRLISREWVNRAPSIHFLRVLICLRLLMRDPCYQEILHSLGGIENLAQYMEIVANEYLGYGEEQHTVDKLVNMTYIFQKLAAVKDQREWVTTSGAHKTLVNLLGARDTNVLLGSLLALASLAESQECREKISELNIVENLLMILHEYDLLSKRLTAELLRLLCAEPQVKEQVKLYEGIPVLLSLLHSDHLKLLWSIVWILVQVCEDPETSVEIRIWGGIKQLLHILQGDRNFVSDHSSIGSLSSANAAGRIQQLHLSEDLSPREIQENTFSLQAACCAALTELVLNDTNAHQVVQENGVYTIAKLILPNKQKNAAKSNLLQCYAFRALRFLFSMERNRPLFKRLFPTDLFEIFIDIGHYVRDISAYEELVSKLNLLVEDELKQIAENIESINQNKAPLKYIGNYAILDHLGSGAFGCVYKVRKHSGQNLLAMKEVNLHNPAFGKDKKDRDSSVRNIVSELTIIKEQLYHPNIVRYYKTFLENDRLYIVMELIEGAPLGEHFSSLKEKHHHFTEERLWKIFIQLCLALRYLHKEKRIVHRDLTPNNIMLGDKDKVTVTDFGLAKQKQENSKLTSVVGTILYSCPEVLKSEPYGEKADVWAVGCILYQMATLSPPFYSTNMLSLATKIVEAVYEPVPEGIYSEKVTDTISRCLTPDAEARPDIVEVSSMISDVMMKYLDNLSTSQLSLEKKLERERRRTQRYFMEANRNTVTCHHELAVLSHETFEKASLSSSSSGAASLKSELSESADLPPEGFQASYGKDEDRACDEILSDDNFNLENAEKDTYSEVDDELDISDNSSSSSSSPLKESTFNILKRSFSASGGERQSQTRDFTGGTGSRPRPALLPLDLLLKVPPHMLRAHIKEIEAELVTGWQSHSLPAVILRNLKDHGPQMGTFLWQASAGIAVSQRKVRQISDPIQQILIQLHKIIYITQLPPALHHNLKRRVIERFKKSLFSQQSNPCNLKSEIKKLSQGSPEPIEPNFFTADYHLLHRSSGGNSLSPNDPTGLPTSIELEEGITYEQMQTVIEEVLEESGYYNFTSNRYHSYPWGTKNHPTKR

[14] = molecular target: Serine/threonine-protein kinase Nek7 (Homo sapiens) (UniProt Q8TDX7); details: Compound concentration 1000.0 nM
[15] = molecular target: Protein kinase C eta type (Homo sapiens) (UniProt P24723); details: Compound concentration 1000.0 nM
[16] = molecular target: Receptor-interacting serine/threonine-protein kinase 1 (Homo sapiens) (UniProt Q13546); details: Compound concentration 1000.0 nM
[17] = molecular target: Receptor-interacting serine/threonine-protein kinase 2 (Homo sapiens) (UniProt O43353); details: Compound concentration 1000.0 nM
[18] = molecular target: Serine/threonine-protein kinase Sgk2 (Homo sapiens) (UniProt Q9HBY8); details: Compound concentration 1000.0 nM
[19] = molecular target: STE20-like serine/threonine-protein kinase (Homo sapiens) (UniProt Q9H2G2); details: Compound concentration 1000.0 nM
[20] = molecular target: Dual specificity protein kinase TTK (Homo sapiens) (UniProt P33981); details: Compound concentration 1000.0 nM
[21] = molecular target: Serine/threonine-protein kinase ULK3 (Homo sapiens) (UniProt Q6PHR2); details: Compound concentration 1000.0 nM
Serine/threonine-protein kinase ULK3 (Homo sapiens), sequence (Q6PHR2 whole entry): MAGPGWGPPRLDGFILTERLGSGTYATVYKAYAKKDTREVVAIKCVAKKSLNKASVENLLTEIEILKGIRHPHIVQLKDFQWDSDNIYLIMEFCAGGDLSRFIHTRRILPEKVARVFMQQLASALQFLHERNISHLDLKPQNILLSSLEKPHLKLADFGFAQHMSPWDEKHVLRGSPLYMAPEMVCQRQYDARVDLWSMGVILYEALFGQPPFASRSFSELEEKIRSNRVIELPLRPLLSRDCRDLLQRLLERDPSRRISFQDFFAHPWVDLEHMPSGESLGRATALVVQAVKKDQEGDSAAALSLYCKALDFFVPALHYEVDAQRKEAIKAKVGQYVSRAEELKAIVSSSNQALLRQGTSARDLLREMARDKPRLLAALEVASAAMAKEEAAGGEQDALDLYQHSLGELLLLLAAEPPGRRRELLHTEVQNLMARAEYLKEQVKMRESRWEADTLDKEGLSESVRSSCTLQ

[22] = molecular target: Mitogen-activated protein kinase kinase kinase 5 (Homo sapiens) (UniProt Q99683); assay: ASK1 (h) Millipore kinase activity assay; details: Compound concentration 1.0 uM
[23] = molecular target: Serine/threonine-protein kinase BRSK2 (Homo sapiens) (UniProt Q8IWQ3); assay: BrSK2 (h) Millipore kinase activity assay; details: Compound concentration 1.0 uM
[24] = molecular target: Casein kinase I isoform delta (Homo sapiens) (UniProt P48730); assay: CK1delta (h) Millipore kinase activity assay; details: Compound concentration 1.0 uM
[25] = molecular target: Discoidin domain-containing receptor 2 (Homo sapiens) (UniProt Q16832); assay: DDR2 (h) Millipore kinase activity assay; details: Compound concentration 1.0 uM
Discoidin domain-containing receptor 2 (Homo sapiens), sequence (Q16832 whole entry, the tested form may be a part): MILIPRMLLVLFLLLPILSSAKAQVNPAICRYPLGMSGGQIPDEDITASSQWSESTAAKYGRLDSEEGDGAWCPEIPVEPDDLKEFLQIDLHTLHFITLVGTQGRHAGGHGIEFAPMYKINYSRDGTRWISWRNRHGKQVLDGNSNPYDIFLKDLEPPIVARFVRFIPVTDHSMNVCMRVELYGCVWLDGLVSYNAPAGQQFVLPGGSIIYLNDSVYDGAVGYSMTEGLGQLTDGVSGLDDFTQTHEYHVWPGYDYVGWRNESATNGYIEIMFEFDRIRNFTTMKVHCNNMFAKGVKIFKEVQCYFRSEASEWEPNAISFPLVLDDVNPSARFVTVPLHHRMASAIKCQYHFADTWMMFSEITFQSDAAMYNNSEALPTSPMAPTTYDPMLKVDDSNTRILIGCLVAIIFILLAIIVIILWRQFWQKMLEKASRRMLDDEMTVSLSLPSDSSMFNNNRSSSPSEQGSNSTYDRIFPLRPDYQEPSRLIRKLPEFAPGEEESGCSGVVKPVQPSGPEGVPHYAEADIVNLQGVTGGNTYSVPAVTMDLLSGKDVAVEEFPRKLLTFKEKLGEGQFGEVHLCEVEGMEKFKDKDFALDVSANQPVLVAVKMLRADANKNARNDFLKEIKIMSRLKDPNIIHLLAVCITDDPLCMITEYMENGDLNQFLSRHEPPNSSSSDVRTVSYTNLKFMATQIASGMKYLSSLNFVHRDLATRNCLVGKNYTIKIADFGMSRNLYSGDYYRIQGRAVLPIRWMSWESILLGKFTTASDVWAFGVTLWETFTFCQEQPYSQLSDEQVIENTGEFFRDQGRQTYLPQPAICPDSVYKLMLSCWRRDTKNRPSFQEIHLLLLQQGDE

[26] = molecular target: G protein-coupled receptor kinase 6 (Homo sapiens) (UniProt P43250); assay: GRK6 (h) Millipore kinase activity assay; details: Compound concentration 1.0 uM
[27] = molecular target: Mitogen-activated protein kinase 1 (Homo sapiens) (UniProt P28482); assay: MAPK1 (h) Millipore kinase activity assay; details: Compound concentration 1.0 uM
Mitogen-activated protein kinase 1 (Homo sapiens), sequence (P28482 whole entry): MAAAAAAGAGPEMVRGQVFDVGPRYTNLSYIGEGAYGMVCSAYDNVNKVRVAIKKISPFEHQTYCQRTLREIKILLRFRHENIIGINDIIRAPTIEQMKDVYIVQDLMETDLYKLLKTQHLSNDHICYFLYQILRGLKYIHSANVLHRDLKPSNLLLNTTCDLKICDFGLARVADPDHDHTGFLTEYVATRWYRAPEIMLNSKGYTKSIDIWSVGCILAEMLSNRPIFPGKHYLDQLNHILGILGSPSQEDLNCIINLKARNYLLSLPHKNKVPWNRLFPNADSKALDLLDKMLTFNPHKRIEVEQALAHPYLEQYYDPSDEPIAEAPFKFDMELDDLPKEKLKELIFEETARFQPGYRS

[28] = molecular target: Serine/threonine-protein kinase MARK2 (Homo sapiens) (UniProt Q7KZI7); assay: PAR-1Balpha (h) Millipore kinase activity assay; details: Compound concentration 1.0 uM
[29] = molecular target: T1, cGMP-dependent protein kinase 1 (Homo sapiens) (UniProt Q13976); assay: PKG1beta (h) Millipore kinase activity assay; details: Compound concentration 1.0 uM
T1 sequence (whole entry): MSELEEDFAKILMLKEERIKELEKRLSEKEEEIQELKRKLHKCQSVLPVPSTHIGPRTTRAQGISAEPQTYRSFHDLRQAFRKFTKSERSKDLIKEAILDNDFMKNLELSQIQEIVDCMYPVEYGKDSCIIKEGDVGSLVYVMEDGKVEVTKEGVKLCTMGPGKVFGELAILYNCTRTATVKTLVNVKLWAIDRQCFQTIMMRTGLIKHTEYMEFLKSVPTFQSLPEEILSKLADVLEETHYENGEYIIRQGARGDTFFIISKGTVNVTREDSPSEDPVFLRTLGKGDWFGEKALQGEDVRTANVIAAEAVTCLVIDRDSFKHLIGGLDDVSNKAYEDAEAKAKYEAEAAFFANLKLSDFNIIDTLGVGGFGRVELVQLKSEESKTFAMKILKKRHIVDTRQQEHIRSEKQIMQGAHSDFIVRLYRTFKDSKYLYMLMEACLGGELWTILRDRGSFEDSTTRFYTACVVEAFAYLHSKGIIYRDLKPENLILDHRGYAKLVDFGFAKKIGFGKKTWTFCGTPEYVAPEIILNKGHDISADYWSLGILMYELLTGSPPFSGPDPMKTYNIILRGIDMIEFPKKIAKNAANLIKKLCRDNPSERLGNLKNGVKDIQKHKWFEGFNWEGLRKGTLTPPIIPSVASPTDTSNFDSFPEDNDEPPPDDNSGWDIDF

[30] = molecular target: Serine/threonine-protein kinase TBK1 (Homo sapiens) (UniProt Q9UHD2); assay: TBK1 (h) Millipore kinase activity assay; details: Compound concentration 1.0 uM
[31] = molecular target: Serine/threonine-protein kinase ULK3 (Homo sapiens) (UniProt Q6PHR2); assay: ULK3 (h) Millipore kinase activity assay; details: Compound concentration 1.0 uM
[32] = organism: Rattus norvegicus; assay: Testosterone Eurofins-Panlabs radioligand binding assay; parameters: ligand concentration 1.5 nM; details: Compound concentration 10.0 uM
[33] = organism: Oryctolagus cuniculus; assay: Inhibition of Purinergic P2X at 10 µM in the Eurofins-Panlabs radioligand binding assay (Eurofins_assay_268700); type: protein assay; details: Compound concentration 10.0 uM
[34] = molecular target: D(3) dopamine receptor (Homo sapiens) (UniProt P35462); details: Compound concentration 10.0 uM
[35] = molecular target: Alpha-1A adrenergic receptor (Homo sapiens) (UniProt P35348); details: Rattus norvegicus; Compound concentration 10.0 uM
[36] = molecular target: Cytoplasmic tyrosine-protein kinase BMX (Homo sapiens) (UniProt P51813); assay: Bmx (h) Millipore kinase activity assay; details: Compound concentration 1.0 uM
[37] = molecular target: Phosphorylase b kinase gamma catalytic chain, liver/testis isoform (Homo sapiens) (UniProt P15735); assay: PhKgamma2 (h) Millipore kinase activity assay; details: Compound concentration 1.0 uM
Phosphorylase b kinase gamma catalytic chain, liver/testis isoform (Homo sapiens), sequence (P15735 whole entry, looked up, canonical isoform): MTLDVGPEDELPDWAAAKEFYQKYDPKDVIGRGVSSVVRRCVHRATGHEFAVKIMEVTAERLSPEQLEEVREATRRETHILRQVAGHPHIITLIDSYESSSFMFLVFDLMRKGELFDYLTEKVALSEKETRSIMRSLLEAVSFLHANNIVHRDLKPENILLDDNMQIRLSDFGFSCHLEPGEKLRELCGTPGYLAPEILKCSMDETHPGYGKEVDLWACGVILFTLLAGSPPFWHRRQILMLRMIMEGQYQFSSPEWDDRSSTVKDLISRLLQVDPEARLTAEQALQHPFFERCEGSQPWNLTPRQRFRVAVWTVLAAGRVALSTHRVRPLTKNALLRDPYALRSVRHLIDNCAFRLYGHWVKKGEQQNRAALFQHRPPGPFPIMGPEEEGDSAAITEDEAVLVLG

ALK tyrosine kinase receptor (Homo sapiens), Q9UM73 [C1156Y], sequence (Q9UM73 whole entry C1156Y, looked up): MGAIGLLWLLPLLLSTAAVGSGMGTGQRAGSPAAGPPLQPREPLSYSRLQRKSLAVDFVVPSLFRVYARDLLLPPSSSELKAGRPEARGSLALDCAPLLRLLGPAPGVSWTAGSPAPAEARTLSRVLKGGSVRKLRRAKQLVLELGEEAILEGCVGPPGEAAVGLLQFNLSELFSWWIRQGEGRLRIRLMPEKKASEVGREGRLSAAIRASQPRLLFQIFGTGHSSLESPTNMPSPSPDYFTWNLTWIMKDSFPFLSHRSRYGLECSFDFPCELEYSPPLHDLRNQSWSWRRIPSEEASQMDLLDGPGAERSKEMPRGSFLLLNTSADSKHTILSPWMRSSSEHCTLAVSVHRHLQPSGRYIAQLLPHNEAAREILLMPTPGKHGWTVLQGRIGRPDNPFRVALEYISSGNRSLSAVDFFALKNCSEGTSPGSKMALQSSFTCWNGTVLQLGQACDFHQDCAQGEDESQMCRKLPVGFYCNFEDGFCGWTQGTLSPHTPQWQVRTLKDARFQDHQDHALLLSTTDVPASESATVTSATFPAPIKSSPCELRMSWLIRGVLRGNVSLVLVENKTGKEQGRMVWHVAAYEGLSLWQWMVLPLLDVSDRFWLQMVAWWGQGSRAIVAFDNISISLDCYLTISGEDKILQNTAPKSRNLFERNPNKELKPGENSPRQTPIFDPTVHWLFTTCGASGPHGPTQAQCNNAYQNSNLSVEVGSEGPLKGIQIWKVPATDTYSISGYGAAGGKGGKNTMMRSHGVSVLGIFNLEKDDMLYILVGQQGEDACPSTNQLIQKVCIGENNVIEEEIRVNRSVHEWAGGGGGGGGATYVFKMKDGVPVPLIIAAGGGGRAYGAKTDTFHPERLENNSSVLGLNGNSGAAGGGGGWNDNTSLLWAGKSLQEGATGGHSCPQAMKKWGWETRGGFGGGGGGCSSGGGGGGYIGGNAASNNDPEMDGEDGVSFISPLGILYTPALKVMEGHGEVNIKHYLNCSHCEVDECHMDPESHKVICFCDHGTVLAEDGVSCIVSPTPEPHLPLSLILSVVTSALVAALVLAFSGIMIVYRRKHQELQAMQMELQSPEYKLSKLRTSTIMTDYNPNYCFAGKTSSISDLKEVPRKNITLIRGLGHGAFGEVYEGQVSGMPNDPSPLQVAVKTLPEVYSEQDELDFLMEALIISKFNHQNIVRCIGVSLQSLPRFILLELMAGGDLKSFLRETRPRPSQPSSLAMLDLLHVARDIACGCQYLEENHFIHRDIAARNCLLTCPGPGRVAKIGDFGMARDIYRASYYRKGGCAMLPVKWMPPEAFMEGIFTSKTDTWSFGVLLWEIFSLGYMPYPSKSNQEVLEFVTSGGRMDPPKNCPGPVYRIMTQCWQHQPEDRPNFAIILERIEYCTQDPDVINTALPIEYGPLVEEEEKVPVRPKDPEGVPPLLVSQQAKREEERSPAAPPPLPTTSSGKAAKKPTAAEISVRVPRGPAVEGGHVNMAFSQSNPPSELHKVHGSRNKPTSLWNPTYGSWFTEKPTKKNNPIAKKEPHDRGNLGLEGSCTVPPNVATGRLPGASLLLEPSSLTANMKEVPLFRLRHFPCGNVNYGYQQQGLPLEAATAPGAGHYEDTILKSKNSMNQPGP

CC1=C(C#N)[C@@H](c2ccc3[nH]nc(C)c3c2)C(C#N)=C(c2ccc(Cl)cc2)N1 [BAY-827]
inactive: residual activity [1] 100% | residual activity [2] 100% | residual activity [3] 100% | residual activity [4] 82.9% | residual activity [5] 100% | residual activity [6] 100% | residual activity [7] 100% | residual activity [8] 100% | residual activity [9] 100% | residual activity [10] 100% | residual activity [11] 100% | residual activity [12] 100% | residual activity [13] 59.6% | residual activity [14] 87.4% | residual activity [15] 96.1% | residual activity [16] 94.6% | residual activity [17] 92% | residual activity [18] 100% | residual activity [19] 100% | residual activity [20] 75.7% | residual activity [21] 88.3%

CC1=C(C#N)C(c2ccc3[nH]nc(C)c3c2)C(C#N)=C(C)N1 [BAY-474]
inactive: inhibition [22] -6% | inhibition [23] 21% | inhibition [24] 3% | inhibition [25] 12% | inhibition [26] -2% | inhibition [27] 4% | inhibition [28] 26% | inhibition [29] 16% | inhibition [30] -6% | inhibition [31] -5% | inhibition [32] 12% | inhibition [33] -1% | inhibition [34] 18.1% | inhibition [35] 1% | inhibition [36] -7% | inhibition [37] -10%

Source: ChEMBL document CHEMBL4507263, “Data for DCP probe BAY-474” (2021)
